Here are results for 2 compounds from article PMC10707934, “Design and Synthesis of Novel α-Methylchalcone Derivatives, Anti-Cervical Cancer Activity, and Reversal of Drug Resistance in HeLa/DDP Cells” (Molecules, 2023).

Experiment [1] relates to α-/β-tubulins in HeLa cells. The experiment is described as follows: Western blot of polymerized and dissociated α-/β-tubulins, HeLa. Format: cell-based, human. The note with it: 24 h, versus control. As for the experimental part:
(§1) HeLa cells were cultured in 60 mm Petri dishes at a density of 1.0 × 10^6 cells per dish and treated with 0.1% DMSO (vehicle), positive control chalcone (20 μM), and different concentrations of compound 3k (2.5, 5, and 10 μM), respectively. Following a 24 and 48 h incubation period, the cells were harvested via centrifugation and subsequently washed twice with PBS that had been chilled to 0 °C. Next, the cells were homogenized using RIPA lysis buffer (Solarbio, Beijing, China) and supplemented with 1% PMSF (MP Biomedicals, 0754-25G, CAS:329-98-6, Santa Ana, CA, USA) and 1% mixed phosphatase inhibitor (Solarbio, Beijing, China). The resulting lysates were then incubated on ice for 30 min, intermittently vortexed every 5 min, and subsequently centrifuged at 12,000 rpm for 20 min to collect the supernatants.
(§2) Subsequently, the protein concentrations were determined utilizing a BCA Protein Assay Kit (Solarbio, China). An equivalent quantity of the proteins (12 μg) was fractionated via 8–12% sodium dodecyl sulfate–polyacrylamide gel electrophoresis (SDS-PAGE) and transferred onto nitrocellulose membranes (Amersham Biosciences, Amersham, UK). Following this, the membranes were obstructed with 5% nonfat dried milk in TBS containing 1% Tween-20 for a duration of 2 h at ambient temperature and were subjected to overnight incubation with specific primary antibodies (CST, Boston, MA, USA) at 4 °C. Following three washes in TBST, the membranes were subjected to incubation with the suitable HRP-conjugated secondary antibodies at ambient temperature for a duration of 2 h. The blots were subsequently visualized using enhanced chemiluminescence (Biosharp, Shanghai, China) and detected utilizing a PE 0723 imager (ProteinSimple, Silicon Valley, CA, USA). Each experiment was conducted in triplicate at minimum and analyzed employing Image J software (V1.8.0.112). β-actin(ab198991) rabbit mAb, goat anti-rabbit IgG (H + L) HRP—#S0001 (Affinity). Bax (ab289364), Bcl-2 (ab218123), MDR1/ABCB1 (E1Y7B) rabbit mAb #13342 (CST).
(§3) Polymerized and free microtubule proteins were extracted using the methods described in references, respectively. Following drug intervention, the cells were subjected to two washes with preheated microtubule protein buffer MTSB at 37 °C. Subsequently, 70 μL of MTSB was added, and the cells were lysed for 10 min at 37 °C in a constant temperature chamber shielded from light. The cells were then scraped with a spatula and centrifuged at 14,000 r/min for 10 min at room temperature. The resulting supernatant, which represented the free state microtubule protein suspension, was subsequently removed. The remaining precipitate was treated with RIPA lysis solution, followed by lysis on ice for a duration of 30 min. Subsequently, centrifugation was performed at a temperature of 4 °C and a speed of 12,000 revolutions per minute for a duration of 20 min. The resulting supernatant was collected as a suspension of polymerized microtubule protein. The Western blotting procedure was the same as in Section 3.3.4. α-Tubulin (DM1A) Mouse mAb#3873 (CST), β-Tubulin (D2N5G) Rabbit mAb #15115 (CST), CoraLite488-conjugated Goat Anti-Mouse lgG(H+L) (Proteintech); CoraLite488-conjugated Goat Anti-Rabbit lgG(H+L) (Proteintech); β-actin(ab198991) rabbit mAb, Goat Anti-Mouse IgG H&L (HRP) (ab6789); Goat anti-Rabbit IgG (H+L) HRP—#S0001 (Affinity).

The subject of experiment [2] is α-/β-tubulins in HeLa/DDP cells. Put plainly: Western blot of polymerized and dissociated α-/β-tubulins, HeLa/DDP. Format: cell-based, human. Conditions: 24 h, versus control. How it is done:
as §1, §2, §3

The subject of experiment [3] is HeLa cells. Put plainly: MTT anti-proliferation assay, HeLa. The class given is cell-based, human. Conditions: Homo sapiens, 48 h, mean ± SD. As for the experimental part:
All cell types, at a volume of 200 µL per well, were inoculated in 96-well plates at a density of 2.5 × 10^4 cells / mL and cultured for 24 h in an incubator with 5% CO2 at 37 °C. The old culture medium was replaced with 200 µL of fresh medium per well containing positive compounds, at concentrations of 1, 6.25, 12.5, 25, 50, and 100 μM. After 48 h of culture, 20 µL per well of 5 mg·mL^−1 MTT solution was added. After 4 h of culture, the old solution was discarded, and 150 µL per well of DMSO solution was added. Using an enzyme labeler (Thermo Fisher Scientific, Multiskan GO, Waltham, MA, USA), the plates were shaken for 10 min, OD values were determined at 490 nm, and the inhibition rate was calculated. Non-linear regression fitting of the cell growth rate was carried out using SPSS 23.0, and the IC50 of the compound was calculated. The inhibition rate was calculated using the formula: [(ODempty − ODtest)/(ODempty − ODnegative group)] × 100%, (ODempty blank group absorbance, ODtest absorbance of administration group, ODnegative group without cell culture medium). Each group contained six compound holes, and the experimental results averaged three trials. Complete medium containing only cells was used as the blank control; a complete medium without cells as was used as the negative control; and cisplatin, paclitaxel, and adriamycin were used as the positive controls. The concentration gradient was the same as that used for compounds 3a–3p. […]
(In general: Tetrazolium dyes change colour on reduction, which living cells bring about.)

The test system of a further experiment is SiHa cells. The experiment is described as follows: MTT anti-proliferation assay, SiHa. Format: cell-based, human. The note with it: Homo sapiens, 48 h, mean ± SD. How it is done: (§4) All cell types, at a volume of 200 µL per well, were inoculated in 96-well plates at a density of 2.5 × 10^4 cells / mL and cultured for 24 h in an incubator with 5% CO2 at 37 °C. The old culture medium was replaced with 200 µL of fresh medium per well containing positive compounds, at concentrations of 1, 6.25, 12.5, 25, 50, and 100 μM. After 48 h of culture, 20 µL per well of 5 mg·mL^−1 MTT solution was added. After 4 h of culture, the old solution was discarded, and 150 µL per well of DMSO solution was added. Using an enzyme labeler (Thermo Fisher Scientific, Multiskan GO, Waltham, MA, USA), the plates were shaken for 10 min, OD values were determined at 490 nm, and the inhibition rate was calculated. Non-linear regression fitting of the cell growth rate was carried out using SPSS 23.0, and the IC50 of the compound was calculated. The inhibition rate was calculated using the formula: [(ODempty − ODtest)/(ODempty − ODnegative group)] × 100%, (ODempty blank group absorbance, ODtest absorbance of administration group, ODnegative group without cell culture medium). Each group contained six compound holes, and the experimental results averaged three trials. Complete medium containing only cells was used as the blank control; a complete medium without cells as was used as the negative control; and cisplatin, paclitaxel, and adriamycin were used as the positive controls. The concentration gradient was the same as that used for compounds 3a–3p.

The subject of another experiment is C33A cells. The experiment is described as follows: MTT anti-proliferation assay, C33A. Format: cell-based, human. The note with it: Homo sapiens, C-33-A, 48 h, mean ± SD. As for the experimental part: as §4
Experiment [4] concerns human cervical epithelial cells H8. The experiment is described as follows: MTT toxicity assay, normal cervical epithelial cells H8. Format: cell-based. Conditions: Homo sapiens, Epithelial cell, 48 h, mean ± SD. How it is done: as §4
The test system of experiment [5] is HeLa/DDP cells. The experiment is described as follows: MTT anti-cisplatin-resistant cervical cancer activity, HeLa/DDP. The class given is cell-based, human. Conditions: 48 h. How it is done: as §4
To mitigate the detrimental consequences arising from the fixation of resistance reversal agents, concentrations that yielded a tumor cell proliferation rate reduction of less than 10% were selected. Consequently, the inhibitory efficacy of compound 3k against HeLa/DDP cells was assessed in conjunction with cisplatin at concentrations of 0.25, 0.5, and 1 μM. The experimental procedure employed was akin to that elucidated in Section 3.3.2. The impact of verapamil (6 μM) and 3k (0.25, 0.5, and 1 μM) on P-gp expression was ascertained via Western blot experiments, employing the same methodology delineated in Section 3.3.4.

The test system of experiment [6] is HeLa/DDP cells. Put plainly: Annexin V-FITC/PI pro-apoptosis assay, HeLa/DDP. Format: cell-based, human. The note with it: 24 h, 20 μM. How it is done:
Cell fluid (2 mL per well) at a concentration of 1.5 × 10^5 cells / mL was added to a 6-well plate and cultured in a cell incubator with 5% CO2 at 37 °C for 24 h. The old solution was discarded; 2 mL of the medium containing compound 3k was added to each well at a concentration gradient of 2.5, 5, and 10 μM; and the experiment was repeated three times at each concentration. Complete medium containing only cells was used as a blank control group, and 20 μM of cisplatin injection and chalcone was used as a positive control. Cells were harvested following a 24 h incubation period, adhering to the guidelines provided with the BD kit (BD Biosciences Pharmingen, 556547, 10975 Torreyana Road, San Diego, CA, USA). Subsequently, the cells were subjected to staining in a light-restricted environment at ambient temperature for a duration of 15 min, followed by filtration and analysis via flow cytometry.
The pro-apoptotic experiments of compound 3k, cisplatin, and chalcone on HeLa/DDP were performed in the same way as in Section 3.3.3. Western Blotting Analysis in the same way as in Section 3.3.4.

The subject of experiment [7] is HeLa cells. The experiment is described as follows: Transwell migration assay, HeLa. The class given is cell-based, human. The note with it: 24 h, 20 μM, control 1176. As for the experimental part: (§5) HeLa (5 × 10^4 cells) was suspended in 200 μL of FBS-free medium. The top chamber contained the vehicle and various concentrations of compound 3k (2.5, 5, and 10 μM), cisplatin (20 μM) and chalcone (20 μM). The lower chamber was filled with 600 μL of medium containing 10% FBS. After incubating at 37 °C for 24 h, the cells on the top side of the Transwell membrane were removed with a cotton tip. Cells were fixed and stained with 4% paraformaldehyde (LEAGENE BIOTECHNOLOGY, Cat:DF0135, Lot:0823A23, Zhongguancun, Haidian District, Beijing, China) and 0.1% crystal violet solutions (Leagene Biotechnology, Cat:DZ0055, Lot:0508A23, Zhongguancun, Haidian District, Beijing, China) for 30 min to fix cells trapped on the perforated side of the membrane.

The test system of experiment [8] is HeLa cells. The experiment is described as follows: Transwell Matrigel invasion assay, HeLa. Format: cell-based, human. The note with it: 24 h, 20 μM. As for the experimental part: (§6) The Transwell ([…], Corning Incorporated, New York, NY, USA) was precoated using 50 μL Matrigel for 5 h at 37 °C to achieve solidification. HeLa cells was collected and suspended in a serum-free medium containing varying concentrations (0, 2.5, 5, and 10 μM) of compound 3k, along with 20 μM cisplatin and chalcone. These cell suspensions were then added to the upper wells of a permeabilization chamber at a density of 5 × 10^5 cells/mL. In the lower wells, 600 μL of DMEM containing 10% FBS was added, which had been prepared using 50 μL of Matrigel (diluted 1:8 with serum-free medium from Corning/BD Biosciences). After 24 h of incubation at 37 °C, the invasion cells were fixed using 4% paraformaldehyde and stained using 0.1% crystal violet for 30 min. Then, the chambers were washed using PBS and left to dry. Images were photographed using an inverted fluorescence microscope (Leica Instruments Co., Ltd., Microsystems CMS GmbH, Weizler, Hesse, Germany) and counted using Image J software (V1.8.0.112) for three independent fields randomly.

Experiment [9] relates to HeLa/DDP cells. Put plainly: Transwell migration assay, HeLa/DDP. The class given is cell-based, human. The note with it: 24 h, 20 μM, control 497. As for the experimental part:
as §5
(§7) The experimental methods for the effects of compound 3k, cisplatin, and chalcone on HeLa/DDP cell invasion and migration were the same as in Section 3.3.6.

For experiment [10], the system named is HeLa/DDP cells. The experiment is described as follows: Transwell Matrigel invasion assay, HeLa/DDP. Conditions: 24 h, 20 μM, control 399. Format: cell-based, human. How it is done: as §6, §7

As usually defined, the IC50 is the concentration at which inhibition is half-maximal.

`COc1cc2c(c(OC)c1OC)-c1ccc(OC)c(=O)cc1[C@@H](NC(C)=O)CC2` [colchicine]: the “expression of dissociated state α and β microtubule proteins” value in [1] (3k 4 μM, colchicine 2 μM, paclitaxel 2.0 μM) is on record as “significantly increased”; in experiment [2] (3k 4 μM, colchicine and paclitaxel 2.0 μM), “increase”. Besides, the “expression of α and β microtubule proteins in the polymerized state” value in [1] (3k 2 and 4 μM, colchicine and paclitaxel 2.0 μM) was “decrease”. In [2] (positive drugs 2.0 μM), the “expression of polymerized state α and β microtubule proteins” value is given as “significant decrease”.

Take `O=C(/C=C/c1ccccc1)c1ccccc1` [Chalcone, (E)-chalcone]: the IC50 came out at 67 ± 4.56 µM with HeLa cells [3]; 62 ± 1.84 µM in the experiment on SiHa cells; 37.5 ± 1.5 µM in the experiment on C33A cells; 78.5 ± 7.78 µM in [4]; 88 ± 7.27 µM with HeLa/DDP cells [5] (Homo sapiens, HeLa/DDP, MTT, mean ± SD). Besides, the “resistance index (RI)” value in the experiment on HeLa/DDP cells [5] (HeLa/DDP versus parental HeLa) turned out to be 1.31. In the experiment on HeLa/DDP cells [6], this compound gave a pro-apoptotic rate of 13.8%. Besides, the “number of migrated cells” value stood at 689 with HeLa cells [7] and 319 with HeLa/DDP cells [9]. Also, in the experiment with HeLa cells [8], the “number of cells undergoing invasion” value is on record as 422. Besides, the “number of invasion cells” value in the experiment with HeLa/DDP cells [10] came to 347.
